Laboratory results published in patent US20240358021A1, “COMPOSITION COMPRISING POTASSIUM BICARBONATE AND USE THEREOF FOR TREATING AND/OR PROTECTING CROPS” (SCEA DU CHATEAU MONTROSE, priority 2021, published 2024).

Key:
[1] = test system: downy mildew (P. viticola) strains PV221, PV413-1, PV1538-1; test: In vitro efficacy test on vine leaf discs (Example 2); assay type: cell-based, Plasmopara viticola; settings: mean over downy mildew strains; Example 2 method
[2] = test system: downy mildew, powdery mildew and vine rot

SMILES | Mean IC50 (CI 50) [1] [µg/mL] | Mean MIC (CMI) [1] [µg/mL] | effect on phytopathogens, in words [2]
O=C([O-])O.[K+] [KHCO3, potassium bicarbonate] | 1000 | 5600 | significant
O=C([O-])O.[Na+] [NaHCO3, sodium bicarbonate] | 1850 | 10000 | –
